Reference: US20260223861A1, “NATURAL PESTICIDAL COMPOSITIONS AND METHODS OF CONTROLLING ARTHROPODS” (TERRAMERA, INC., priority 2023, published 2026)
“And” between values parts separate entries of the source, which are not always exact repeats. Identical values can stand only once.

Test system: German cockroaches
Assay: Spraying compositions on German cockroaches, knock-down and mortality (dead incl. moribund) observed
Format: in vivo
Settings: knocked-down and dead insects, concentrations w/w in water
Procedure: In the following in vitro examples, various compounds were combined and the resulting composition was tested for efficacy. Each composition was mixed using a magnetic stir bar at room temperature (21° C.), except as otherwise noted herein. […] Water-insoluble and/or -immiscible ingredients, such as wintergreen oil, geraniol, oleic acid, and Na oleate, were dissolved and mixed as a separate fraction (the water-insoluble fraction). The water-insoluble fraction was then mixed with the water-soluble fraction by gentle stirring. All tested compositions comprised the tested compounds in solution with water. Each composition was tested for efficacy by spraying the composition on German cockroaches and observing the number of knocked-down and dead (including moribund) insects twice, once at 5 minutes after spraying and once at 48 hours after spraying. Either such measure of knock-down and mortality can be important in certain contexts. For example, 5-minute knock-down and mortality can be important in consumer contexts, as efficacy is often assessed over a short interval in such contexts. Shorter intervals, such as 30 seconds or 1 minute, are also or alternatively sometimes used in such contexts. As another example, 48-hour knock-down and mortality can be important in agricultural or industrial contexts, as total reduction in pest pressure may be more readily assessed over longer periods in such contexts. […] Ingredients were also tested for efficacy on their own (in dilution in water to provide the same concentration of the ingredient as in the tested compositions) using the same testing procedure. An expected efficacy for each formulation was determined based on the ingredients' individual tested efficacies based on the Colby equation, as described in greater detail by Ferry, Nancy; Stanley, Bruce H.; and Armel, Gregory (2005). “DESIGN AND […] OF BIOLOGICAL ASSAYS OF MIXTURES,” Conference on Applied Statistics in Agriculture. https://doi.org/10.4148/2475-7772.1133. Compositions with efficacy greater than this expected efficacy were determined to show synergistic efficacy.

[1] = 5 minutes after spraying, sulfate
[2] = 48 hours after spraying, sulfate

Compound | Observed Efficacy (5 minutes after spraying) | Observed Efficacy (48 hours after spraying) | other results
CCCCOC(=O)C(C)O (stereo not shown) [Butyl Lactate (2.5%), Butyl lactate] | 0% | 0% | –
CCCCOC(=O)C(C)O (stereo not shown) [Butyl Lactate (5%), Butyl lactate] | 13% | 13% | –
CCCCOC(=O)C(C)O (stereo not shown) [Butyl Lactate (10%), Butyl lactate] | 7% | 7% | –
CCCCOC(=O)C(C)O (stereo not shown) [Butyl Lactate (20%), Butyl lactate] | 13% | 13% | –
CC(C)=CCC/C(C)=C/CO [Geraniol (2.5%), Geraniol] | 20% | 20% | –
CC(C)=CCC/C(C)=C/CO [Geraniol (5%), Geraniol] | 7% | 7% | –
CC(C)=CCC/C(C)=C/CO [Geraniol (10%), Geraniol] | 27% | 27% | –
CC(C)=CCC/C(C)=C/CO [Geraniol (20%), Geraniol] | 5% | 5% | –
CCCCCCCC/C=C\CCCCCCCC(=O)OCC(O)CO (stereo not shown) [Glycerol Monooleate (1.25%), Glycerol monooleate] | 0% | 0% | –
CC(C)O [Isopropyl alcohol (5%), Isopropyl alcohol] | 0% | 0% | –
CC(C)O [Isopropyl alcohol (10%), Isopropyl alcohol] | 0% | 0% | –
[Cl-].[Na+] [NaCl (2.5%), NaCl] | 0% | 0% | –
CCCCCCCC/C=C\CCCCCCCC(=O)O [Oleic Acid (5%), Oleic acid] | 0% | 0% | –
CCCCCCCC/C=C\CCCCCCCC(=O)O [Oleic Acid (20%), Oleic acid] | 5% and 0% | 5% and 0% | –
CCCCCCCCCCCCOS(=O)(=O)[O-].[Na+] [Sodium Lauryl Sulfate (1.25%), Sodium lauryl sulfate] | – | – | Observed Efficacy [1]: 0%; Observed Efficacy [2]: 0%
CCCCCCCCCCCCOS(=O)(=O)[O-].[Na+] [Sodium Lauryl Sulfate (2.5%), Sodium lauryl sulfate] | – | – | Observed Efficacy [1]: 0%; Observed Efficacy [2]: 0%
CCCCCCCCCCCCOS(=O)(=O)[O-].[Na+] [Sodium Lauryl Sulfate (5%), Sodium lauryl sulfate] | – | – | Observed Efficacy (5 minutes after spraying, listed as Sodium lauryl sulfate (5%), sulfate): 7%; Observed Efficacy [1]: 7%; Observed Efficacy (48 hours after spraying, listed as Sodium lauryl sulfate (5%), sulfate): 7%; Observed Efficacy [2]: 7%
CCCCCCCCCCCCOS(=O)(=O)[O-].[Na+] [Sodium Lauryl Sulfate (10%), Sodium lauryl sulfate] | – | – | Observed Efficacy (5 minutes after spraying, listed as Sodium lauryl sulfate (10%), sulfate): 0%; Observed Efficacy [1]: 0%; Observed Efficacy (48 hours after spraying, listed as Sodium lauryl sulfate (10%), sulfate): 0%; Observed Efficacy [2]: 0%
